Experimental data reported in publication PMC3574212 (Journal of medicinal chemistry, 2013).
Entries after “also recorded” stand apart in the source; their conditions may differ. Counter-ions that a name gives are not always drawn.

Key:
type II PKA holoenzyme = assay: Counter screening assay, type II PKA holoenzyme kinase activity; assay type: biochemical; details: 25 µM compound, 0.1 mM cAMP
type I PKA holoenzyme = assay: Counter screening assay, type I PKA holoenzyme kinase activity; assay type: biochemical; details: 25 µM compound, 0.1 mM cAMP
EPAC1 [1] = target: T1, EPAC1 (Homo sapiens, UniProt O95398); assay: cAMP-mediated EPAC1 GEF activity; assay type: biochemical; details: 25 µM compound in the presence of 25 µM cAMP
T1 sequence (O95398 1-923): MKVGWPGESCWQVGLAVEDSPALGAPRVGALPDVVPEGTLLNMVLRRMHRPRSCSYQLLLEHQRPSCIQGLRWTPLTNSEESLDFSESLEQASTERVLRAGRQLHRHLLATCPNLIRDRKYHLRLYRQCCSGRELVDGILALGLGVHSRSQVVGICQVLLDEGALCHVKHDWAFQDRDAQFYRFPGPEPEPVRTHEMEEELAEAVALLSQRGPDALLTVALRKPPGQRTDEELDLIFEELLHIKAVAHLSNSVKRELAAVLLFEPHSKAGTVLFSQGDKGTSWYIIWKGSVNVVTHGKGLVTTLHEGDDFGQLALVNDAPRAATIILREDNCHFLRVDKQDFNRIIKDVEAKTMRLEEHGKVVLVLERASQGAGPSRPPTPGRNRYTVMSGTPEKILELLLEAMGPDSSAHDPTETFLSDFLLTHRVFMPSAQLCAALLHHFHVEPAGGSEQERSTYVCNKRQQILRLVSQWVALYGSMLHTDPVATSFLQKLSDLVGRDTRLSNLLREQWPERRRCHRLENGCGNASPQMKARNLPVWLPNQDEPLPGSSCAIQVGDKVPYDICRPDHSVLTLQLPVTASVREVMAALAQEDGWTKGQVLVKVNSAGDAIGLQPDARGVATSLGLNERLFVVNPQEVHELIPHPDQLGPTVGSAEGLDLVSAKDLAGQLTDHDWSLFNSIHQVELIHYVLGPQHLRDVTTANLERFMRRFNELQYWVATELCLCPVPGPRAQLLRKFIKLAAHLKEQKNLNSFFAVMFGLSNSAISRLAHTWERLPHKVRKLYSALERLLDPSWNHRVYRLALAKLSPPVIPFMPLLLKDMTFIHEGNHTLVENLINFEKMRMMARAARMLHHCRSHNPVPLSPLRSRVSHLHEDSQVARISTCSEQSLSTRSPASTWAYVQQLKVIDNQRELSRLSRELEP

EPAC2 [2] = target: T2, EPAC2 (Mus musculus, UniProt Q9EQZ6); assay: cAMP-mediated EPAC2 GEF activity; assay type: biochemical; details: 25 µM compound in the presence of 25 µM cAMP
T2 sequence (Q9EQZ6 1-1011): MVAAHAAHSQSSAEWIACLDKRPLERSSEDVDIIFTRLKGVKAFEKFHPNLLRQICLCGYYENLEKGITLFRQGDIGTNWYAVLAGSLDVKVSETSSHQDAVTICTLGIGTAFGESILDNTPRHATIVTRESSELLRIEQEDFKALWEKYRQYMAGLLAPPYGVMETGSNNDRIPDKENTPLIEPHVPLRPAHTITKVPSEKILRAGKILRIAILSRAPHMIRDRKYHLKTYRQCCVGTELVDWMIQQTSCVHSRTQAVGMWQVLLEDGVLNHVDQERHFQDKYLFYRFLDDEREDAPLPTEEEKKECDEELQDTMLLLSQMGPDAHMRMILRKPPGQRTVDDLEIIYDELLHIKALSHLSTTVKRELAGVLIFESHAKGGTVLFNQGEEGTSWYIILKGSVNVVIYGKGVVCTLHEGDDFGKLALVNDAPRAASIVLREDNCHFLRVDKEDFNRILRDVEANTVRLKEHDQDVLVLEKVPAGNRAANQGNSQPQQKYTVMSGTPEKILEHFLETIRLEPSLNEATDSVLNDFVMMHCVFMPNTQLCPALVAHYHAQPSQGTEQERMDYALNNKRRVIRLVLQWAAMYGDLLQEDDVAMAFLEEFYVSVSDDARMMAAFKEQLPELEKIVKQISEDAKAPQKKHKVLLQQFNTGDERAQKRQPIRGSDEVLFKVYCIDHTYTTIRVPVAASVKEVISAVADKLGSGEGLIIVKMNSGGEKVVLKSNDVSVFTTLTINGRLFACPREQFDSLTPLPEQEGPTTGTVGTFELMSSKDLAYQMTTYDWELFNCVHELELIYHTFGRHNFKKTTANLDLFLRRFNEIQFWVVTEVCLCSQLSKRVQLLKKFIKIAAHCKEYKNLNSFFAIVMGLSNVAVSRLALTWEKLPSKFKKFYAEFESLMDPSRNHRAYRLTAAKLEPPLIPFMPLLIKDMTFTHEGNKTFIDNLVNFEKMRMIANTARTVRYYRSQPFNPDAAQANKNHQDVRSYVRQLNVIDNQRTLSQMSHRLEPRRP

EPAC1 [3] = target: T1, EPAC1; details: cAMP-mediated EPAC1 GEF activity; ref 18b; cited from earlier work
EPAC2 [4] = target: T2, EPAC2; assay: 8-NBD-cAMP competition binding assay; details: for Relative Potency (RA): RA = IC50, cAMP/ IC50, compound; for EPAC2 inhibitory activity (in words): 8-NBD-cAMP competition
[5] = tested on: HEK293 cells stably expressing the PKA sensor AKAR3; assay: FRET-based live-cell assay for PKA; details: 10 µM 20i, 10 µM 8-Br-cAMP-AM
HEK293/EPAC1-FL = target: T3, HEK293/EPAC1-FL (Homo sapiens, UniProt O95398); assay: FRET-based live-cell assay for EPAC1 activation; details: 10 µM 20i, 10 µM 007-AM
T3 sequence (O95398 1-923): T1 sequence (O95398 1-923)

HEK293/EPAC2-FL cells = HEK293/EPAC2-FL cells (Homo sapiens, UniProt Q8WZA2); assay: FRET-based live-cell assay for EPAC2 activation; details: 10 µM 20i pretreatment, 10 µM 007-AM
Sequence of HEK293/EPAC2-FL cells (Q8WZA2 whole entry): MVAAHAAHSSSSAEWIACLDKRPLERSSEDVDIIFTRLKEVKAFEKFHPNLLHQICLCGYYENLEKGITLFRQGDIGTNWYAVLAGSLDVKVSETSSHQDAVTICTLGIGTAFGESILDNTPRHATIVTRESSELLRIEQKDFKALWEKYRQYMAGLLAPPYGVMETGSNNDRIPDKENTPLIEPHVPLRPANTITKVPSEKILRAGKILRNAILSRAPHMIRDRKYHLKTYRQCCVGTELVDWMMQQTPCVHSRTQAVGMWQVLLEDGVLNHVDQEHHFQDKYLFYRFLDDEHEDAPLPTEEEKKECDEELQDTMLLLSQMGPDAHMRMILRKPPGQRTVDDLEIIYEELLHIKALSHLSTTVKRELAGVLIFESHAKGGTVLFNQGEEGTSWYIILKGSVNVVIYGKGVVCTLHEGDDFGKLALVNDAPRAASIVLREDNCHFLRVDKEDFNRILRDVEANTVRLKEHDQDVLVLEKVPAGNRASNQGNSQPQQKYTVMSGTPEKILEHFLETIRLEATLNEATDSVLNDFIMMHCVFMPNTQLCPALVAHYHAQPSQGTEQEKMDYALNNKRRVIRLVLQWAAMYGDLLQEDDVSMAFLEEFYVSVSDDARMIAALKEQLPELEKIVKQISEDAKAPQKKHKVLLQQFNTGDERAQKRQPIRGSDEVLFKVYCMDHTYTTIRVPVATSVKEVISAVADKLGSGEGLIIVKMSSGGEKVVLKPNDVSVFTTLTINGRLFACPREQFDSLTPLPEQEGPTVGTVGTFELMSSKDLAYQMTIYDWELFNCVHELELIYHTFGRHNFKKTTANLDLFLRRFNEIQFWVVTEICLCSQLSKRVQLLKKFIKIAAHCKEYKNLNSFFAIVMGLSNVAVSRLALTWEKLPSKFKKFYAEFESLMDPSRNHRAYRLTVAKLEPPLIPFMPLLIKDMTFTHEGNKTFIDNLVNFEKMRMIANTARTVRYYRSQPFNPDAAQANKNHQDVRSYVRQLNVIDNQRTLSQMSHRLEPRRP

Structure (SMILES)	Effect on cAMP-induced type II PKA holoenzyme activation (type II PKA holoenzyme)	Effect on cAMP-induced type I PKA holoenzyme activation (type I PKA holoenzyme)	Relative Potency (RA) (EPAC2 [4])	EPAC2 inhibitory activity (in words) (EPAC2 [4])	other results
Cc1ccc(S(=O)(=O)c2c(C)cc(C)cc2C)cc1 [Compound 1]	not to significantly alter	not to significantly alter	–	–	Inhibition of EPAC1-mediated Rap1-GDP exchange activity (EPAC1 [1]): no inhibition; also recorded: not to inhibit; Inhibition of EPAC2 GEF activity (EPAC2 [2]): inhibit EPAC2 GEF activity to basal levels
Nc1ccc(Nc2ccc(N)cc2S(=O)(=O)O)cc1 [Compound 2]	–	–	2.2	–	Selectivity EPAC2 vs EPAC1 of HTS hits (EPAC1 [3]): not exclusively specific for EPAC2
CCc1cccn1S(=O)(=O)c1ccc(C)cc1C [Compound 20h, 1-(2,4-Dimethylbenzenesulfonyl)-2-ethyl-1H-pyrrole]	–	–	30.8	–	–
COC(=O)c1ccc2c(ccn2S(=O)(=O)c2c(C)cc(C)cc2C)c1 [Compound 22b, 1-(2,4,6-Trimethylbenzenesulfonyl)-1H-indole-5-carboxylic acid methyl ester]	–	–	<0.13	dramatic loss of activity	IC50 (EPAC2 [4]): > 300 µM
Cc1cc(C)c(S(=O)(=O)n2ccc3cc(C(=O)O)ccc32)c(C)c1 [Compound 22c, 1-(2,4,6-Trimethylbenzenesulfonyl)-1H-indole-5-carboxylic acid]	–	–	3.7	less active with a moderate potency	–
Cc1cc(C)c(S(=O)(=O)n2ccc3ccncc32)c(C)c1 [Compound 24c, 1-(2,4,6-Trimethylbenzenesulfonyl)-1H-pyrrolo[2,3-c]pyridine]	–	–	3.2	–	–
Cc1cc(C)c(S(=O)(=O)n2ccc3cccnc32)c(C)c1 [Compound 24d, 1-(2,4,6-Trimethylbenzenesulfonyl)-1H-pyrrolo[2,3-b]pyridine]	–	–	16.7	almost retained activity	–
O=S(=O)(NCCNC/C=C/c1ccc(Br)cc1)c1cccc2cnccc12 [Compound H89, N-[2-[[3-(4-bromophenyl)-2-propenyl]amino]ethyl]-5-isoquinolinesulfonamide dihydrochloride, reference compound]	blocked the type I or II PKA activities completely	blocked the type I or II PKA activities completely	–	–	–

More lines, main results first:

Effect on cAMP-induced type II PKA holoenzyme activation (type II PKA holoenzyme)	Effect on cAMP-induced type I PKA holoenzyme activation (type I PKA holoenzyme)	Relative Potency (RA) (EPAC2 [4])	EPAC2 inhibitory activity (in words) (EPAC2 [4])	Structure (SMILES)	other results
not to significantly alter	not to significantly alter	100	–	Cc1cc(C)c(Nc2cc(Cl)ccc2Cl)c(C)c1 [Compound 14c, (2,5-Dichlorophenyl)-(2,4,6-trimethylphenyl)amine]	fold more potent than cAMP (EPAC2 [4]; 8-NBD-cAMP competition in binding EPAC2): about 100 fold; Inhibition of EPAC1-mediated Rap1-GDP exchange activity (EPAC1 [1]): no inhibition; also recorded: not to inhibit; Inhibition of EPAC2 GEF activity (EPAC2 [2]): inhibit EPAC2 GEF activity to basal levels
not to significantly alter	not to significantly alter	–	–	Cc1cc(C)c(S(=O)(=O)n2cc(C)cc2C)c(C)c1 [Compound 20i, 2,4-Dimethyl-1-(2,4,6-trimethylbenzenesulfonyl)-1H-pyrrole]	Inhibition of 8-Br-cAMP-AM induced PKA activation (AKAR3 FRET) [5]: not inhibited; also recorded: did not affect PKA activation; Inhibition of EPAC1-mediated Rap1-GDP exchange activity (EPAC1 [1]): no inhibition; also recorded: not to inhibit; Inhibition of EPAC2 GEF activity (EPAC2 [2]): inhibit EPAC2 GEF activity to basal levels; Block of 007-AM induced decrease of FRET (EPAC1 activation) (HEK293/EPAC1-FL): incapable of blocking; also recorded: not EPAC1 activation; Block of 007-AM induced decrease of FRET (EPAC2 activation) (HEK293/EPAC2-FL cells): fully blocked; also recorded: blocked EPAC2
–	–	33.3	almost retained activity	Cc1cc(C)c(S(=O)(=O)n2ccc3ccccc32)c(C)c1 [Compound 22a, 1-(2,4,6-Trimethylbenzenesulfonyl)-1H-indole]	–
–	–	10.5	–	Cc1cc(C)c(S(=O)(=O)n2ccc3ncccc32)c(C)c1 [Compound 24a, 1-(2,4,6-Trimethylbenzenesulfonyl)-1H-pyrrolo[3,2-b]pyridine]	–
–	–	4.5	–	Cc1cc(C)c(S(=O)(=O)n2ccc3cnccc32)c(C)c1 [Compound 24b, 1-(2,4,6-Trimethylbenzenesulfonyl)-1H-pyrrolo[3,2-c]pyridine]	–
